Assay results from DBAASP.
Converted amounts (≈) assume the structure as drawn. “And” between values parts separate entries of the source, which are not always exact repeats. Equal values may be shown once. Each block holds one molecule with its values, some of them ahead of it.

How the values were obtained:
Assay in all cases: ≥ marks a high value that may be exact or a test limit, other limits are often not marked, values filed in µg/mL are converted to µM
[1] = tested on: Candida albicans NCPE 1467
[2] = tested on: Chromobacterium violaceum ATCC 12472
[3] = tested on: Enterococcus faecalis NCTC 12697
[4] = tested on: Escherichia coli NCTC 10418
[5] = tested on: Pseudomonas aeruginosa ATCC 27853
[6] = tested on: Staphylococcus aureus ATCC 43300
[7] = tested on: Staphylococcus aureus NCTC 10788
[8] = tested on: Staphylococcus aureus NCTC 12493
[9] = tested on: Acinetobacter baumannii ATCC BAA-1605
[10] = tested on: Enterococcus faecium ATCC 700221
[11] = tested on: Escherichia coli ATCC 25922
[12] = tested on: Klebsiella pneumoniae ATCC 700603
[13] = tested on: Staphylococcus aureus ATCC 33591
[14] = tested on: Candida albicans SC5314
[15] = tested on: Cryptococcus neoformans var. grubii H99
[16] = tested on: Escherichia coli
[17] = tested on: Klebsiella pneumoniae
[18] = tested on: Pseudomonas aeruginosa
[19] = tested on: Pseudomonas syringae
[20] = tested on: Staphylococcus aureus ATCC 29213
[21] = tested on: Staphylococcus aureus
[22] = tested on: Streptococcus pneumoniae TIGR4
[23] = tested on: Streptococcus pyogenes AP1
[24] = tested on: Xanthomonas campestris pv. campestris
[25] = tested on: Xanthomonas oryzae pv. oryzae
[26] = tested on: Xanthomonas vesicatoria
[27] = tested on: Acinetobacter baumannii
[28] = tested on: Enterobacter cloacae
[29] = tested on: Escherichia coli BL21
[30] = tested on: Escherichia coli KpC+001812446
[31] = tested on: Klebsiella pneumoniae ATCC 13883
[32] = tested on: Klebsiella pneumoniae KpC+001825971
[33] = tested on: Pseudomonas aeruginosa PA14
[34] = tested on: Pseudomonas aeruginosa PAO1
[35] = tested on: Staphylococcus aureus ATCC 12600
[36] = tested on: Staphylococcus aureus ATCC 25923
[37] = tested on: Staphylococcus aureus MR
[38] = tested on: Aeromonas hydrophila ATCC 35654
[39] = tested on: Micrococcus luteus ATCC 49732
[40] = tested on: Escherichia coli UB1005
[41] = tested on: Lacticaseibacillus rhamnosus 1.0385
[42] = tested on: Lacticaseibacillus rhamnosus 1.0386
[43] = tested on: Lacticaseibacillus rhamnosus 1.0911
[44] = tested on: Lacticaseibacillus rhamnosus 1.0925
[45] = tested on: Lacticaseibacillus rhamnosus 7469
[46] = tested on: Lactiplantibacillus plantarum 8014
[47] = tested on: Staphylococcus epidermidis ATCC 12228

SMILES: CC[C@H](C)[C@H](NC(=O)[C@H](CCCCN)NC(=O)[C@H](CCCN=C(N)N)NC(=O)[C@H](Cc1ccccc1)NC(=O)[C@H](CC(C)C)NC(=O)[C@H](CCCN=C(N)N)NC(=O)[C@@H](N)CCCCN)C(=O)N[C@@H](CC(C)C)C(=O)N[C@@H](CCCN=C(N)N)C(=O)N[C@@H](Cc1ccc(O)cc1)C(=O)N[C@@H](CC(C)C)C(N)=O [KRLFRKILRYL]
MIC [9]: 11.6 µM (≈ 17.5 µg/mL) | MIC [10]: 23.2 µM (≈ 35 µg/mL) | MIC [11]: 46.8 µM (≈ 70.5 µg/mL) | MIC [12]: 23.2 µM (≈ 35 µg/mL) | MIC [5]: 46.8 µM (≈ 70.5 µg/mL) | MIC [13]: ≥ 46.8 µM

SMILES: CC[C@H](C)[C@H](NC(=O)[C@H](CCC(=O)O)NC(=O)[C@H](Cc1ccc(O)cc1)NC(=O)[C@@H](N)CCCCN)C(=O)N[C@H](C(=O)N[C@H](C(=O)N[C@H](C(=O)N[C@@H](Cc1cnc[nH]1)C(=O)N[C@@H](CC(N)=O)C(=O)N[C@@H](CC(C)C)C(=O)N[C@@H](Cc1ccccc1)C(=O)N[C@@H](CCCN=C(N)N)C(=O)N[C@@H](CCCCN)C(=O)N[C@@H](CC(C)C)C(=O)N[C@H](C(=O)N[C@@H](Cc1cnc[nH]1)C(=O)N[C@@H](CCCN=C(N)N)C(=O)N[C@@H](CC(C)C)C(=O)N[C@@H](Cc1ccccc1)C(=O)N[C@@H](CCCN=C(N)N)C(=O)N[C@@H](CCCN=C(N)N)C(=O)N[C@@H](CC(N)=O)C(=O)N[C@@H](Cc1ccccc1)C(=O)NCC(=O)N[C@@H](Cc1ccc(O)cc1)C(=O)N[C@H](C(=O)N[C@@H](CC(C)C)C(=O)N[C@@H](CCCN=C(N)N)C(=O)O)[C@@H](C)O)[C@@H](C)O)[C@@H](C)CC)[C@@H](C)O)[C@@H](C)O [KYEITTIHNLFRKLTHRLFRRNFGYTLR]
MIC [14]: 25 µM and ≥ 50 µM | MIC [15]: 25 µM and ≥ 50 µM | MIC [11]: 10 µM (≈ 36 µg/mL) | MIC [16]: 3.54 µM (≈ 12.7 µg/mL) | MIC [17]: 10 µM and 25 µM | MIC [5]: 10 µM (≈ 36 µg/mL) | MIC [18]: 14.1 µM (≈ 50.8 µg/mL) | MIC [19]: 5 µM (≈ 18 µg/mL) | MIC [20]: 5 µM (≈ 18 µg/mL) | MIC [21]: 5 µM (≈ 18 µg/mL) | MIC [22]: 5 µM (≈ 18 µg/mL) | MIC [23]: 10 µM (≈ 36 µg/mL) | MIC [24]: 5 µM (≈ 18 µg/mL) | MIC [25]: 5 µM (≈ 18 µg/mL) | MIC [26]: 1 µM (≈ 3.6 µg/mL)

SMILES: CC(C)C[C@H](NC(=O)[C@H](Cc1cnc[nH]1)NC(=O)[C@H](C)NC(=O)[C@H](CCCCN)NC(=O)[C@H](CCCCN)NC(=O)[C@H](Cc1ccccc1)NC(=O)[C@H](CO)NC(=O)[C@H](CCCCN)NC(=O)[C@H](CC(=O)O)NC(=O)[C@H](Cc1cnc[nH]1)NC(=O)[C@H](Cc1c[nH]c2ccccc12)NC(=O)[C@H](CCCN=C(N)N)NC(=O)[C@H](CCC(N)=O)NC(=O)[C@H](CCC(N)=O)NC(=O)[C@H](CCCN=C(N)N)NC(=O)[C@@H](N)CCCN=C(N)N)C(=O)NCC(=O)N[C@H](C(=O)N[C@@H](C)C(=O)N[C@H](C(=O)N[C@@H](CCCCN)C(=O)N[C@@H](C)C(N)=O)C(C)C)[C@@H](C)O [RRQQRWHDKSFKKAHLGTAVKA]
MIC [38]: 20 µM (≈ 53 µg/mL) | MIC [11]: > 20 µM | MIC [39]: 20 µM (≈ 53 µg/mL) | MIC [36]: > 20 µM

SMILES: NC(=O)[C@H](CCCN=C(N)N)NC(=O)[C@H](CCCN=C(N)N)NC(=O)[C@H](Cc1c[nH]c2ccccc12)NC(=O)[C@H](Cc1ccc(O)cc1)NC(=O)[C@H](Cc1c[nH]c2ccccc12)NC(=O)[C@H](Cc1c[nH]c2ccccc12)NC(=O)[C@H](Cc1c[nH]c2ccccc12)NC(=O)[C@H](Cc1ccc(O)cc1)NC(=O)[C@H](Cc1c[nH]c2ccccc12)NC(=O)[C@H](CCCN=C(N)N)NC(=O)[C@@H](N)CCCN=C(N)N [RRWYWWWYWRR]
MIC [11]: 32 µM (≈ 60.8 µg/mL) | MIC [40]: ≥ 32 µM | MIC [41]: 16 µM (≈ 30.4 µg/mL) | MIC [42]: 16 µM (≈ 30.4 µg/mL) | MIC [43]: ≥ 64 µM | MIC [44]: ≥ 64 µM | MIC [45]: ≥ 64 µM | MIC [46]: 4 µM (≈ 7.6 µg/mL) | MIC [5]: 8 µM (≈ 15.2 µg/mL) | MIC [20]: 8 µM (≈ 15.2 µg/mL) | MIC [6]: 8 µM (≈ 15.2 µg/mL) | MIC [47]: 8 µM (≈ 15.2 µg/mL)

The next lines start with the values.

MIC [1]: 4 µM (≈ 9.97 µg/mL) | MIC [2]: ≥ 205 µM | MIC [3]: 12.8 µM (≈ 31.9 µg/mL) | MIC [4]: 8 µM (≈ 19.9 µg/mL) | MIC [5]: 32 µM (≈ 79.8 µg/mL) | MIC [6]: 51.3 µM (≈ 128 µg/mL) | MIC [7]: 2 µM (≈ 4.99 µg/mL) | MIC [8]: 4 µM (≈ 9.97 µg/mL)
SMILES: CC[C@H](C)[C@H](NC(=O)[C@H](C)NC(=O)[C@H](C)NC(=O)[C@@H]1CCCN1C(=O)[C@@H](NC(=O)[C@H](CC(C)C)NC(=O)[C@H](CCCCN)NC(=O)[C@H](CO)NC(=O)[C@H](C)NC(=O)[C@@H](NC(=O)[C@H](CCCCN)NC(=O)[C@H](Cc1ccccc1)NC(=O)[C@H](CC(C)C)NC(=O)[C@H](C)NC(=O)CNC(=O)[C@H](CC(C)C)NC(=O)[C@@H](N)Cc1ccccc1)C(C)C)C(C)C)C(=O)N[C@H]1CSSC[C@@H](C(=O)O)NC(=O)[C@H](CCCCN)NC(=O)[C@H](CCCCN)NC(=O)[C@H](CO)NC(=O)[C@H]([C@@H](C)CC)NC(=O)[C@H](CO)NC1=O [FLGALFKVASKLVPAAICSISKKC]

MIC [27]: 4 µM (≈ 8.59 µg/mL) | MIC [28]: ≥ 32 µM | MIC [11]: 8 µM (≈ 17.2 µg/mL) | MIC [29]: 2 µM (≈ 4.3 µg/mL) | MIC [30]: 2 µM (≈ 4.3 µg/mL) | MIC [31]: 8 µM (≈ 17.2 µg/mL) | MIC [32]: ≥ 32 µM | MIC [33]: 8 µM (≈ 17.2 µg/mL) | MIC [34]: 16 µM (≈ 34.4 µg/mL) | MIC [35]: 16 µM (≈ 34.4 µg/mL) | MIC [36]: 8 µM (≈ 17.2 µg/mL) | MIC [37]: ≥ 32 µM
SMILES: CC[C@H](C)[C@H](NC(=O)[C@H](CCCCN)NC(=O)[C@H](C)NC(=O)[C@H](C)NC(=O)[C@H](CC(C)C)NC(=O)[C@H](CCCN=C(N)N)NC(=O)[C@H](CC(C)C)NC(=O)[C@H](C)NC(=O)[C@H](CC(C)C)NC(=O)[C@H](CCCCN)NC(=O)[C@H](CC(C)C)NC(=O)[C@H](CCCCN)NC(=O)[C@H](CCCCN)NC(=O)[C@H](CCSC)NC(=O)[C@@H]1CCCN1)C(=O)N[C@@H](C)C(=O)N1CCC[C@H]1C(=O)N[C@H](C(=O)N[C@@H](Cc1c[nH]c2ccccc12)C(=O)O)C(C)C [PMKKLKLALRLAAKIAPVW]
